Molecules are shown by their SMILES.

The test system of data set [1] is Leishmania donovani. The experiment in a line: Antileishmanial activity against Leishmania donovani. The data set is classed as functional, organism-based.
Data set [2] in a line: Octanol-water partition coefficient, log P of the compound.
Data set [3] in a line: Toxicity in po dosed mouse. As to conditions: in vivo.
The nature of data set [4]: in vivo. As to conditions: rat, po.

`Cc1nc(Sc2nccn2-c2cc(Cl)ccc2Cl)c(C(=O)O)cc1C#N` showed an IC50 in data set [1] of 21 µM.

The molecule `O=[N+]([O-])c1ccc(Oc2c(Cl)cccc2Cl)c([N+](=O)[O-])c1Oc1c(Cl)cccc1Cl` had an IC50 in data set [1] of 80 µM.

On to `O=C1NC(=O)c2cc([N+](=O)[O-])c(Sc3c(Cl)cccc3Cl)cc21`, for which the IC50 in data set [1] is 60 µM.

Molecule `O=[N+]([O-])c1cc([N+](=O)[O-])c(S(=O)(=O)Nc2cccc(F)c2)c(C(F)(F)F)c1` came in with a logP in data set [2] of 4.39. In addition, the LD50 was found to be 880 mg/kg in data set [3] and 620 mg/kg in data set [4].

On to `Cc1cc(NS(=O)(=O)c2c([N+](=O)[O-])cc([N+](=O)[O-])cc2C(F)(F)F)c(Cl)cc1Cl`, for which the logP in data set [2] is 6.44. In addition, the LD50 in data set [3] was found to be 650 mg/kg; in data set [4], 350 mg/kg.

Consider `CCCN(CCC)c1c([N+](=O)[O-])cc(Sc2cc(C)c(Cl)cc2Cl)cc1[N+](=O)[O-]`, for which the logP in data set [2] came to 8.66. The LD50 came out at 1800 mg/kg in data set [3] and 1600 mg/kg in data set [4].

In data set [2], `N#Cc1cc([N+](=O)[O-])c(S(=O)(=O)Nc2cccc(F)c2)c([N+](=O)[O-])c1` returned a logP of 2.51. The LD50 was 1300 mg/kg in data set [3] and 1200 mg/kg in data set [4].

`Cc1cc(S(=O)(=O)c2c([N+](=O)[O-])cc(C#N)cc2[N+](=O)[O-])c(Cl)cc1Cl` showed a logP in data set [2] of 4.08. The results for the LD50 in data set [3] and in data set [4] were 1100 mg/kg and 1000 mg/kg, respectively.

In data set [2], `CCCN(CCC)c1c([N+](=O)[O-])cc(Sc2ccc(OC)cc2)cc1[N+](=O)[O-]` showed a logP of 6.53. The results for the LD50 in data set [3] and in data set [4] were 1600 mg/kg and 1900 mg/kg, respectively.

The molecule `Cc1cc(S(=O)(=O)c2c([N+](=O)[O-])cc(C(F)(F)F)cc2[N+](=O)[O-])c(Cl)cc1Cl` had a logP in data set [2] of 5.72. In addition, the figures for the LD50 in data set [3] and in data set [4] were 1800 mg/kg and 1200 mg/kg, respectively.

`CCCN(CCC)c1c([N+](=O)[O-])cc(C(N)=O)cc1[N+](=O)[O-]` gave an IC50 in data set [1] of 32 µM.

The molecule `O=[N+]([O-])c1cc(C(F)(F)F)cc([N+](=O)[O-])c1Sc1ccc(Cl)cc1Cl` returned a logP in data set [2] of 6.73. For the same molecule, the LD50 amounted to 780 mg/kg in data set [3] and 600 mg/kg in data set [4].

`Cc1cc(Sc2ncc(C(F)(F)F)cc2[N+](=O)[O-])c(Cl)cc1Cl`: in data set [1], the concentration for half-maximal inhibition (IC50) is 98.2 µM. This counts as double-digit micromolar.

In data set [1], `Cc1cc(Sc2ccc(C(F)(F)F)cc2[N+](=O)[O-])c(Cl)cc1Cl` had an IC50 of 59 µM.

`COc1ccc(Sc2c([N+](=O)[O-])cc(C#N)cc2[N+](=O)[O-])cc1` gave a 50% inhibitory concentration (IC50) in data set [1] of 0.67 µM. This molecule also returned a logP in data set [2] of 3.56. Further, the results for the LD50 in data set [3] and in data set [4] were 1100 mg/kg and 1400 mg/kg, respectively.

Take `CCCN(CCC)c1c([N+](=O)[O-])cc(S(=O)(=O)Nc2ccc(OC)cc2)cc1[N+](=O)[O-]`: the IC50 in data set [1] is 76 µM.

On to `CCCCCCN(CCCCCC)c1c([N+](=O)[O-])cc(S(N)(=O)=O)cc1[N+](=O)[O-]`, for which half-maximal inhibition in data set [1] (IC50) was put at 12 µM.

In turn, `CCCN(CCC)c1c([N+](=O)[O-])cc(S(N)(=O)=O)cc1[N+](=O)[O-]` [ORYZALIN] yielded a logP in data set [2] of 3.38. The results for the LD50 in data set [3] and in data set [4] were 1600 mg/kg and 1400 mg/kg, respectively.

These data come from ChEMBL document CHEMBL1275271, “QSAR and docking studies of novel antileishmanial diaryl sulfides and sulfonamides” (Eur J Med Chem, 2010).
